The source of these data is patent US6780403B1, “Deodorants” (Kao Corporation, priority 1999, dated 2004).

Data set [1] can be described thus: acid dissociation index (pK1, pK2) at 25° C. In kind it is physicochemical. The conditions noted are these: for Difference (pK2 - pK1): 25° C., method (D); for first acid dissociation index / second acid dissociation index: for the dibasic acid, source of value not given. As for the experimental part:
The organic dibasic acid used as a deodorant in the present invention is selected from organic dibasic acids and/or salts thereof having a difference between the first acid dissociation index and the second acid dissociation index of 1.7 or more at 25° C. (hereinafter, described as deodorant organic dibasic acid). The acid dissociation index can be measured, for example, by a method (A) described in The Journal of Physical Chemistry vol.
Further, previously obtained data may also be used. […] Further, the organic dibasic acid can be selected based on data bases (D) such as pKa BASE of Compudrug, and the like. The first acid dissociation index and the second acid dissociation index of the organic dibasic acid may be determined by any of the methods (A) to (D).

The conditions of data set [2]: 25° C.; method (D), data bases such as pKa BASE of Compudrug; cited from earlier work.
The nature of data set [3]: Deodorization effect on lower fatty acid (sensory evaluation). Conditions: 150 mg of 1% aqueous lower fatty acid mixture 20/60/20; after 20 minutes; grades 0 to 3 (initial odor = 3), average of three examiners.
Data set [4] is described as follows: Deodorization effect on ammonia odor (dessicator, Kitagawa type gas detector). Conditions: 250 mg base agent, 50 mg of 1% ammonia aqueous solution, 2.5 liter dessicator, 20 minutes; relative to blank 1. As to the method: Into a schale having a diameter of 4 cm was added 250 mg of the deodorant base agents obtained in Reference Examples 1 and 2, and 50 mg of a 1% ammonia aqueous solution was dropped thereon. The above-mentioned schale was allowed to stand still in a 2.5 liter dessicator for 20 minutes, then, the ammonia concentration (S) was measured by a Kitagawa type gas detector. Further, a schale containing no deodorant base agent was used as a blank 1 and a schale containing 250 mg of water added instead of a deodorant base agent was used as a blank 2, and the ammonia concentration was measured likewise. The ammonia concentration of the blank 1 was represented by C, and the deodorization rate was calculated according to the following formula. As Comparative Example 1, the deodorization effect on an ammonia odor was measured likewise in Example 1 using 250 mg of a solution obtained by dissolving 28 g (0.116 mol) of lauryl methacrylate which is a known deodorant base agent in 115 g of diethylene glycol monoethyl ether.
(Measurement Method of Deodorization Ratio)
Deodorization rate (%)=[(C−S)/C]×100
S: ammonia gas concentration after 20 minutes (ppm)
C: ammonia gas concentration of blank 1 (ppm)

The nature of data set [5]: Deodorization effect on mercaptan (sensory evaluation, filter paper in beaker). Conditions: 150 mg base agent, 50 mg 0.0002% methylmercaptan in propylene glycol; after 20 minutes; grades 0 to 3 (initial odor = 3), average of three examiners. As to the method:
Filter paper having a length of 7 cm and a width of 0.5 cm was impregnated with 150 mg of a deodorant base agent, subsequently, the same filter paper was impregnated with 50 mg of a 0.0002% solution of methylmercaptan in propylene glycol. The filter paper was placed in erected condition in a 3 liter beaker and wrapping film was covered on it and left for 20 minutes, then, a odor filling the beaker was subjected to sensory evaluation. The strength of the odor of methylmercaptan at the initial was defined as 3, and odors after 20 minutes were evaluated by three examiners based on four grades from 0 to 3, and the average value thereof was calculated and the first decimal was rounded off to give a deodorization effect.

Consider `CCC(C)(CC(=O)O)CC(=O)O` [3-methyl-3-ethylglutaric acid], for which the “Difference (pK2 - pK1)” value in data set [1] turned out to be 3.08. Further, in data set [2], the “First acid dissociation index (pK1)” value is given as 3.62 and the “Second dissociation index (pK2)” value is given as 6.70.
On to `CC(CC(=O)O)(CC(=O)O)c1ccccc1` [3-methyl-3-phenylglutaric acid], for which the “Difference (pK2 - pK1)” value in data set [1] was determined as 2.05. Besides, in data set [2], the “First acid dissociation index (pK1)” value is listed as 4.12 and the “Second dissociation index (pK2)” value was 6.17.
For `CC1CCCC(CC(=O)O)(CC(=O)O)C1` (centres unmarked) [3-methylcyclohexyl-1,1-diacetic acid], the “Difference (pK2 - pK1)” value in data set [1] came to 2.59. In addition, in data set [2], the “First acid dissociation index (pK1)” value is 3.49 and the “Second dissociation index (pK2)” value was 6.08.
For `CC1CCC(CC(=O)O)(CC(=O)O)C1` (centres unmarked) [3-methylcyclopentyl-1,1-diacetic acid], the “Difference (pK2 - pK1)” value in data set [1] is listed as 2.95. Moreover, in data set [2], the “First acid dissociation index (pK1)” value is listed as 3.79 and the “Second dissociation index (pK2)” value is reported as 6.74.
In the case of `CCCC(CC(=O)O)(CC(=O)O)c1ccccc1` [3-phenyl-3-propylglutaric acid], in data set [1], the “Difference (pK2 - pK1)” value amounted to 3.06. Further, in data set [2], the “First acid dissociation index (pK1)” value is given as 3.88 and the “Second dissociation index (pK2)” value is recorded as 6.94.
As to `CC(C)(C)C(C)(CC(=O)O)CC(=O)O` [3-t-buthyl-3-methylglutaric acid], the “Difference (pK2 - pK1)” value in data set [1] amounted to 3.88. Further, in data set [2], the “First acid dissociation index (pK1)” value is recorded as 3.61 and the “Second dissociation index (pK2)” value is listed as 7.49.
On to `CC1CCC(CC(=O)O)(CC(=O)O)CC1` [4-methylcyclohexyl-1,1-diacetic acid], for which the “Difference (pK2 - pK1)” value in data set [1] is 2.61. Further, in data set [2], the “First acid dissociation index (pK1)” value is listed as 3.49 and the “Second dissociation index (pK2)” value is 6.10.
On to `O=C(O)[C@H]1CC[C@H]1C(=O)O` [Cis-1,2-cyclobutanedicarboxylic acid], for which the “Difference (pK2 - pK1)” value in data set [1] is given as 2.07. Further, in data set [2], the “First acid dissociation index (pK1)” value is reported as 4.16 and the “Second dissociation index (pK2)” value was 6.23.
Take `O=C(O)[C@H]1CCCCC[C@H]1C(=O)O` [Cis-1,2-cycloheptanedicarboxylic acid]: in data set [1], the “Difference (pK2 - pK1)” value is reported as 3.73. In data set [2], the “First acid dissociation index (pK1)” value is reported as 3.87 and the “Second dissociation index (pK2)” value is listed as 7.60.
On to `O=C(O)[C@H]1CCCCCC[C@H]1C(=O)O` [Cis-1,2-cyclooctanedicarboxylic acid], for which, in data set [1], the “Difference (pK2 - pK1)” value came to 3.35. For the same compound, in data set [2], the “First acid dissociation index (pK1)” value is 3.99 and the “Second dissociation index (pK2)” value was 7.34.
With `O=C(O)[C@H]1CCC[C@H]1C(=O)O` [Cis-1,2-cyclopentanedicarboxylic acid], the “Difference (pK2 - pK1)” value in data set [1] was determined as 2.15. Moreover, in data set [2], the “First acid dissociation index (pK1)” value is reported as 4.42 and the “Second dissociation index (pK2)” value was 6.57.
For the compound `O=C(O)[C@H]1C[C@H]1C(=O)O` [Cis-1,2-cyclopropanedicarboxylic acid], the “Difference (pK2 - pK1)” value in data set [1] is listed as 3.09. For the same compound, in data set [2], the “First acid dissociation index (pK1)” value is recorded as 3.56 and the “Second dissociation index (pK2)” value is given as 6.65.
With `C=C(C)C(=O)OCCCCCCCCCCCC` [Comparative Example 1, lauryl methacrylate, reference compound], the results for the Evaluation of odor in data set [3] and in data set [5] were 2 and 3, respectively. Also, the Deodorization rate in data set [4] worked out at 10%.
Turning to `O=C(O)CCC(=O)O` [Comparative Example 2, succinic acid, reference compound], the Evaluation of odor in data set [3] stood at 2. Besides, in data set [1], the “first acid dissociation index” value is given as 4.00 and the “second acid dissociation index” value is given as 5.25. The “difference of acid dissociation index” value in data set [1] (given in running text) was “less than 1.7”. The same compound had a Deodorization rate in data set [4] of 33%. Moreover, the Evaluation of odor in data set [5] was found to be 3.
With `O=C(O)CC1(CC(=O)O)CCCCC1` [Cyclohexyl-1,1-diacetic acid], the “Difference (pK2 - pK1)” value in data set [1] was determined as 3.59. Further, in data set [2], the “First acid dissociation index (pK1)” value is listed as 3.49 and the “Second dissociation index (pK2)” value is given as 7.08.
For `O=C(O)[C@H]1CCCC[C@H]1C(=O)O` [Deodorant base agent 1, cis-cyclohexane-1,2-dicarboxylic acid], the results for the Evaluation of odor in data set [3] and in data set [5] were 1 and 2, respectively. In data set [4], the Deodorization rate stood at 79%.
Consider `O=C1OC(=O)C2C3C=CC(C3)C12` (centres unmarked) [Deodorant base agent 2, 5-norbornene-2,3-dicarboxylic acid anhydride], for which, in data set [3], the Evaluation of odor stood at 1. Moreover, in data set [1], the “first acid dissociation index” value is recorded as 4.16 and the “second acid dissociation index” value is reported as 6.23. In data set [4], this compound yielded a Deodorization rate of 88%. In data set [5], this compound showed an Evaluation of odor of 1.
`O=C(O)CC(C(=O)O)c1ccccc1` (centres unmarked) [Phenylsuccinic acid]: the “Difference (pK2 - pK1)” value in data set [1] is listed as 1.77. In data set [2], the “First acid dissociation index (pK1)” value is on record as 3.78 and the “Second dissociation index (pK2)” value was 5.55.
Consider `CC(C)(C(=O)O)C(C)(C)C(=O)O` [Tetramethylsuccinic acid], for which, in data set [1], the “Difference (pK2 - pK1)” value was 3.85. Further, in data set [2], the “First acid dissociation index (pK1)” value is reported as 3.56 and the “Second dissociation index (pK2)” value is reported as 7.41.
With `O=C(O)CC1(CC(=O)O)CCCC1` [cyclopentyl-1,1-diacetic acid], the “Difference (pK2 - pK1)” value in data set [1] is 2.97. For the same compound, in data set [2], the “First acid dissociation index (pK1)” value is recorded as 3.80 and the “Second dissociation index (pK2)” value is given as 6.77.
